What was measured:
[1] = species: Cavia porcellus; experiment: Antagonist activity was determined by partial agonist activity of EK in Guinea pig ileum (GPI); irreversible agonist activity; assay type: functional, organism-based
[2] = species: Cavia porcellus; experiment: Antagonist activity was determined by partial agonist activity of morphine in Guinea pig ileum (GPI); irreversible agonist activity; assay type: functional, organism-based
[3] = species: Cavia porcellus; experiment: Opioid agonist activity was determined as potency ratio relative to morphine in Guinea pig ileum (GPI); assay type: functional
[4] = species: Mus musculus; experiment: IC50 ratio for leucine-enkephalin rather than DADLE determined in Mouse vas deferens (MVD); assay type: functional
[5] = species: Mus musculus; experiment: Opioid agonist activity was determined in Mouse vas deferens (MVD); assay type: functional
[6] = species: Cavia porcellus; experiment: Antagonist activity was determined by partial agonist activity of EK in Guinea pig ileum (GPI); assay type: functional
[7] = species: Cavia porcellus; experiment: Antagonist activity was determined by partial agonist activity of morphine in Guinea pig ileum (GPI); assay type: functional

Row | SMILES | IC50 ratio [1] | IC50 ratio [2] | Potency ratio [3] | IC50 ratio [4] | IC20 [5] | IC50 ratio [6] | IC50 ratio [7]
1 | CN(CCCl)[C@H]1CC[C@@]2(O)C3Cc4ccc(O)c5c4C2(CCN3CC2CC2)[C@H]1O5 (stereo not given in full) | irreversible agonist activity | irreversible agonist activity | 159 | 5 | 3 nM |  | 
2 | CN(CCCl)[C@@H]1CC[C@@]2(O)C3Cc4ccc(O)c5c4C2(CCN3CC2CC2)[C@H]1O5 (stereo not given in full) |  |  | 5.3 | 2.9 | 10 nM | 17.3 | 48.8

Source: ChEMBL document CHEMBL1123748, “Opioid agonist and antagonist activities of monofunctional nitrogen mustard analogues of beta-chlornaltrexamine” (1987)
